Source: ChEMBL document CHEMBL4507277

How the values were obtained:
[1] = system: Tyrosine-protein kinase ABL1 (Homo sapiens), P00519 [T315I]; conditions: Compound concentration 1000.0 nM
[2] = target: Mitogen-activated protein kinase kinase kinase 6 (Homo sapiens) (UniProt O95382); conditions: Compound concentration 1000.0 nM
[3] = target: Tyrosine-protein kinase Blk (Homo sapiens) (UniProt P51451); conditions: Compound concentration 1000.0 nM
[4] = target: Bone morphogenetic protein receptor type-1A (Homo sapiens) (UniProt P36894); conditions: Compound concentration 1000.0 nM
[5] = target: Cyclin-dependent kinase 11B (Homo sapiens) (UniProt P21127); conditions: Compound concentration 1000.0 nM
[6] = target: Dual specificity protein kinase CLK2 (Homo sapiens) (UniProt P49760); conditions: Compound concentration 1000.0 nM
[7] = target: Serine/threonine-protein kinase DCLK1 (Homo sapiens) (UniProt O15075); conditions: Compound concentration 1000.0 nM
[8] = target: Dual specificity tyrosine-phosphorylation-regulated kinase 1A (Homo sapiens) (UniProt Q13627); conditions: Compound concentration 1000.0 nM
[9] = system: Epidermal growth factor receptor (Homo sapiens), P00533 [T790M]; conditions: Compound concentration 1000.0 nM
[10] = target: Ephrin type-A receptor 5 (Homo sapiens) (UniProt P54756); conditions: Compound concentration 1000.0 nM
[11] = target: Mitogen-activated protein kinase 1 (Homo sapiens) (UniProt P28482); conditions: Compound concentration 1000.0 nM
[12] = system: Receptor-type tyrosine-protein kinase FLT3 (Homo sapiens), P36888 [UNDEFINED MUTATION]; conditions: Compound concentration 1000.0 nM
[13] = system: Receptor-type tyrosine-protein kinase FLT3 (Homo sapiens), P36888 [N841I]; conditions: Compound concentration 1000.0 nM
[14] = target: G protein-coupled receptor kinase 3 (Homo sapiens) (UniProt P35626); conditions: Compound concentration 1000.0 nM
[15] = target: Serine/threonine-protein kinase haspin (Homo sapiens) (UniProt Q8TF76); conditions: Compound concentration 1000.0 nM
[16] = target: Insulin receptor (Homo sapiens) (UniProt P06213); conditions: Compound concentration 1000.0 nM
[17] = target: Tyrosine-protein kinase JAK1 (Homo sapiens) (UniProt P23458); conditions: Compound concentration 1000.0 nM
[18] = target: Mitogen-activated protein kinase 8 (Homo sapiens) (UniProt P45983); conditions: Compound concentration 1000.0 nM
[19] = target: Leukocyte tyrosine kinase receptor (Homo sapiens) (UniProt P29376); conditions: Compound concentration 1000.0 nM
[20] = target: Myosin light chain kinase 2, skeletal/cardiac muscle (Homo sapiens) (UniProt Q9H1R3); conditions: Compound concentration 1000.0 nM
[21] = target: Serine/threonine-protein kinase PAK 2 (Homo sapiens) (UniProt Q13177); conditions: Compound concentration 1000.0 nM
[22] = target: Serine/threonine-protein kinase PAK 4 (Homo sapiens) (UniProt O96013); conditions: Compound concentration 1000.0 nM
[23] = target: Cyclin-dependent kinase 14 (Homo sapiens) (UniProt O94921); conditions: Compound concentration 1000.0 nM
[24] = system: Phosphatidylinositol 4,5-bisphosphate 3-kinase catalytic subunit alpha isoform (Homo sapiens), P42336 [Q546K]; conditions: Compound concentration 1000.0 nM
[25] = target: Serine/threonine-protein kinase N1 (Homo sapiens) (UniProt Q16512); conditions: Compound concentration 1000.0 nM
[26] = target: Interferon-induced, double-stranded RNA-activated protein kinase (Homo sapiens) (UniProt P19525); conditions: Compound concentration 1000.0 nM
[27] = system: Proto-oncogene tyrosine-protein kinase receptor Ret (Homo sapiens), P07949 [V804L]; conditions: Compound concentration 1000.0 nM
[28] = target: Rho-associated protein kinase 1 (Homo sapiens) (UniProt Q13464); conditions: Compound concentration 1000.0 nM
[29] = target: SRSF protein kinase 3 (Homo sapiens) (UniProt Q9UPE1); conditions: Compound concentration 1000.0 nM
[30] = target: Serine/threonine-protein kinase 35 (Homo sapiens) (UniProt Q8TDR2); conditions: Compound concentration 1000.0 nM
[31] = target: STE20/SPS1-related proline-alanine-rich protein kinase (Homo sapiens) (UniProt Q9UEW8); conditions: Compound concentration 1000.0 nM
[32] = target: TGF-beta receptor type-1 (Homo sapiens) (UniProt P36897); conditions: Compound concentration 1000.0 nM
[33] = target: Angiopoietin-1 receptor (Homo sapiens) (UniProt Q02763); conditions: Compound concentration 1000.0 nM
[34] = target: Non-receptor tyrosine-protein kinase TYK2 (Homo sapiens) (UniProt P29597); conditions: Compound concentration 1000.0 nM
[35] = target: Vascular endothelial growth factor receptor 2 (Homo sapiens) (UniProt P35968); conditions: Compound concentration 1000.0 nM
[36] = target: Serine/threonine-protein kinase WNK2 (Homo sapiens) (UniProt Q9Y3S1); conditions: Compound concentration 1000.0 nM
[37] = target: T1, 5-hydroxytryptamine receptor 3A (Homo sapiens) (UniProt P46098); conditions: Compound concentration 10.0 uM
T1 sequence (whole entry): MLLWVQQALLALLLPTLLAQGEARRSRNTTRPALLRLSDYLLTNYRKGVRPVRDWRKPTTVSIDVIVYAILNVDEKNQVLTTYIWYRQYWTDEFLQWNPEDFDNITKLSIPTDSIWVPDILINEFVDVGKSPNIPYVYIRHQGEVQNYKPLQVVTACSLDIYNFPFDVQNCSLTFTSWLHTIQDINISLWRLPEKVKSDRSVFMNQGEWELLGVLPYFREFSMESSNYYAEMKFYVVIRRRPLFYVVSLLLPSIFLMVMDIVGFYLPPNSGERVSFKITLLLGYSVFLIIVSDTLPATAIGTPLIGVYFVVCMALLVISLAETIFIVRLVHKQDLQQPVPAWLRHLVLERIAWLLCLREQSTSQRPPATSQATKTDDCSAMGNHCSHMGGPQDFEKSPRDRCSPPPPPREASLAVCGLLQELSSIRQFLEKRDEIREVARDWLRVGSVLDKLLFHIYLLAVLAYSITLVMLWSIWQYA

[38] = target: Alpha-2A adrenergic receptor (Homo sapiens) (UniProt P08913); conditions: Compound concentration 10.0 uM

Chain of Mitogen-activated protein kinase 8 (Homo sapiens) (P45983 whole entry): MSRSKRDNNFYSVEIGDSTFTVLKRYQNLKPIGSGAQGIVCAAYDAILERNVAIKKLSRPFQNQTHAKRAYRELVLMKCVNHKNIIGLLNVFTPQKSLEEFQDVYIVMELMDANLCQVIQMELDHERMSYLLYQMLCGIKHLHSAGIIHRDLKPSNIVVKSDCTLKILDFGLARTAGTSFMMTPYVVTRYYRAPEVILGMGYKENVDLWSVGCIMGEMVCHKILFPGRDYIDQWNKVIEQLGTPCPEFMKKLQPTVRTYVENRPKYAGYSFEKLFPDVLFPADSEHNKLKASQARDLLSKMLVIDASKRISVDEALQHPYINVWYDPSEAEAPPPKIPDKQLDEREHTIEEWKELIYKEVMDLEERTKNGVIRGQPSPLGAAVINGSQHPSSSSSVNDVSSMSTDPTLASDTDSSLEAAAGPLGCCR
Chain of SRSF protein kinase 3 (Homo sapiens) (Q9UPE1 whole entry): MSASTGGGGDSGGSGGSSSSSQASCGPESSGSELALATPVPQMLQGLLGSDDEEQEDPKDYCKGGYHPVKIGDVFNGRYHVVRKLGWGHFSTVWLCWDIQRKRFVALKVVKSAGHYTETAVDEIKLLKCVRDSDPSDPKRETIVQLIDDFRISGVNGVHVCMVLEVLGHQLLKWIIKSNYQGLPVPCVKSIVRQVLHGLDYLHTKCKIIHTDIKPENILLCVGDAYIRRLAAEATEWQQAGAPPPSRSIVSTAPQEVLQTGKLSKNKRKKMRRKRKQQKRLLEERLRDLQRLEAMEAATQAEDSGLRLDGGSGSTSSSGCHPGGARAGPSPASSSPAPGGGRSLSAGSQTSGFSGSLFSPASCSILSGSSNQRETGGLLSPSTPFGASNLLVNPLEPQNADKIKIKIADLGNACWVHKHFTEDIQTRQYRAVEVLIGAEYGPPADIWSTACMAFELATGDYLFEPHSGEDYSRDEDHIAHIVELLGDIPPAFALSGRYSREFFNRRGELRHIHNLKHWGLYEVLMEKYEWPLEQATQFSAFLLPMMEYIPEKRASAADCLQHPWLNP
Chain of Tyrosine-protein kinase JAK1 (Homo sapiens) (P23458 whole entry): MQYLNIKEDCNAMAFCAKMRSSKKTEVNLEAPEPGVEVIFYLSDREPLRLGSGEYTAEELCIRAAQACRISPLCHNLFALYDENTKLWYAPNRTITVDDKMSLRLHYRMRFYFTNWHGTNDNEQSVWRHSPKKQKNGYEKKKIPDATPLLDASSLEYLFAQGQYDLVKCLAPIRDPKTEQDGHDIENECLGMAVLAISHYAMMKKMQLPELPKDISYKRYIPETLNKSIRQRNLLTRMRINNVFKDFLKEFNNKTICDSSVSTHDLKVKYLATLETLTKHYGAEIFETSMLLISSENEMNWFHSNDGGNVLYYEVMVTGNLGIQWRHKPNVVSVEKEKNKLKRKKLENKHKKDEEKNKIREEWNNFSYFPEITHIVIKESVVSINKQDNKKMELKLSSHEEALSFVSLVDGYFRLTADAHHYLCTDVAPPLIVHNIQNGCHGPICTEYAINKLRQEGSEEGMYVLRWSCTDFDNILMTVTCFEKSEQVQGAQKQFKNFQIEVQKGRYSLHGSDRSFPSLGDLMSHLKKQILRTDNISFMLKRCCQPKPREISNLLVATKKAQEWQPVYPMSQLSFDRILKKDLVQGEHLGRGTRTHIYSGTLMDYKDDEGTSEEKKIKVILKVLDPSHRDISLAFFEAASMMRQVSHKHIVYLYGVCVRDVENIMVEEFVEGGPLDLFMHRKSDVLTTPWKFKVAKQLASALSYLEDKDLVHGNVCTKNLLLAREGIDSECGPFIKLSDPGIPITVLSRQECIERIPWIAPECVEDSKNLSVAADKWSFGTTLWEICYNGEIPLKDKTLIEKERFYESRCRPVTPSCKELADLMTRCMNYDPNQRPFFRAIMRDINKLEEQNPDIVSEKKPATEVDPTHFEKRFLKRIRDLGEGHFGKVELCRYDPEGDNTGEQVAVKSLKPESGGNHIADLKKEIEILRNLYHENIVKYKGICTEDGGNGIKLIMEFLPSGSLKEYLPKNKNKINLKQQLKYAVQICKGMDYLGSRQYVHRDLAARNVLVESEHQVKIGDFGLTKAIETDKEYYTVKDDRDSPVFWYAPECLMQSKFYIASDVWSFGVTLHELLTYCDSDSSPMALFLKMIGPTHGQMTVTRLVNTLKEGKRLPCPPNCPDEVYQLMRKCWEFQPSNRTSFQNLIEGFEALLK
Chain of Tyrosine-protein kinase Blk (Homo sapiens) (P51451 2-505 limits assumed): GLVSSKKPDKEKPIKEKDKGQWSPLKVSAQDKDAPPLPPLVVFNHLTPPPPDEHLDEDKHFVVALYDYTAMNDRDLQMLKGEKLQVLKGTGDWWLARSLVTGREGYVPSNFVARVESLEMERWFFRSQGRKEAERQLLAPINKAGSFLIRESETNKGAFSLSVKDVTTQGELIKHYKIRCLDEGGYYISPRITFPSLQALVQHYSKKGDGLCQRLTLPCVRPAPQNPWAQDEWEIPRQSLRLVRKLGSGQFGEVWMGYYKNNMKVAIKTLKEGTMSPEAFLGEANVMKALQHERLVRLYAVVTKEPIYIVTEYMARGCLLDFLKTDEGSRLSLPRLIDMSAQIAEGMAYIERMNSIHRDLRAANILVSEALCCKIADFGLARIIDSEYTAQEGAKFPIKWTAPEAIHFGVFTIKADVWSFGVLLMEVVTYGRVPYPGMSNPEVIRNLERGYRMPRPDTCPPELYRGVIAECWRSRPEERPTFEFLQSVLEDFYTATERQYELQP
Chain of Angiopoietin-1 receptor (Homo sapiens) (Q02763 whole entry): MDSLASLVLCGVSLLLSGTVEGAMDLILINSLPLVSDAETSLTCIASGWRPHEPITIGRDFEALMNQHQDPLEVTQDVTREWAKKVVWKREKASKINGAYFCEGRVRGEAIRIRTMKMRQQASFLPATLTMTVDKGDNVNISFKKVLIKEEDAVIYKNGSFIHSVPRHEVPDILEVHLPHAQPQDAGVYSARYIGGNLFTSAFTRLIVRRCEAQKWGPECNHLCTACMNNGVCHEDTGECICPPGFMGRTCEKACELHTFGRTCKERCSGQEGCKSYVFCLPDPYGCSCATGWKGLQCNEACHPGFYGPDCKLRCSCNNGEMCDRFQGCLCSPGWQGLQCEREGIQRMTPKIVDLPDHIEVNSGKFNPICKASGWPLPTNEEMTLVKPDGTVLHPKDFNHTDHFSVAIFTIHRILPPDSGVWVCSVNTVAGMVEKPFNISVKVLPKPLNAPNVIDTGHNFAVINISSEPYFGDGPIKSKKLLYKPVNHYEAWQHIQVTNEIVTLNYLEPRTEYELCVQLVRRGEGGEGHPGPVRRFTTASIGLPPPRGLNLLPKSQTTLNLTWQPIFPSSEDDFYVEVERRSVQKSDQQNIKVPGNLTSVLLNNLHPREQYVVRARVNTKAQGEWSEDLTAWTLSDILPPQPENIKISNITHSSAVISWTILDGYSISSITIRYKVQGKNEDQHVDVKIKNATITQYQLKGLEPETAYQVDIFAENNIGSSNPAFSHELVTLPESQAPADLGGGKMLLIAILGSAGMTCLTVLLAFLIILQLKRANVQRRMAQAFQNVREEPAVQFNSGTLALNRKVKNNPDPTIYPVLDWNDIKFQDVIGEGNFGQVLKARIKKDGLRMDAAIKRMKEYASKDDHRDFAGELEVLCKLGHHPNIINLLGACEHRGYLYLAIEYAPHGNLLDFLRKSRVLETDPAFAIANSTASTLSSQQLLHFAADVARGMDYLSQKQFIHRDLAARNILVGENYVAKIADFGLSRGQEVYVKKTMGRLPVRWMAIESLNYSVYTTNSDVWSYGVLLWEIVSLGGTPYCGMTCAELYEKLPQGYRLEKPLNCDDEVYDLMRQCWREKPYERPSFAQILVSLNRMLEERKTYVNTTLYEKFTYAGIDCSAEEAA
Chain of Serine/threonine-protein kinase PAK 4 (Homo sapiens) (O96013 whole entry, looked up): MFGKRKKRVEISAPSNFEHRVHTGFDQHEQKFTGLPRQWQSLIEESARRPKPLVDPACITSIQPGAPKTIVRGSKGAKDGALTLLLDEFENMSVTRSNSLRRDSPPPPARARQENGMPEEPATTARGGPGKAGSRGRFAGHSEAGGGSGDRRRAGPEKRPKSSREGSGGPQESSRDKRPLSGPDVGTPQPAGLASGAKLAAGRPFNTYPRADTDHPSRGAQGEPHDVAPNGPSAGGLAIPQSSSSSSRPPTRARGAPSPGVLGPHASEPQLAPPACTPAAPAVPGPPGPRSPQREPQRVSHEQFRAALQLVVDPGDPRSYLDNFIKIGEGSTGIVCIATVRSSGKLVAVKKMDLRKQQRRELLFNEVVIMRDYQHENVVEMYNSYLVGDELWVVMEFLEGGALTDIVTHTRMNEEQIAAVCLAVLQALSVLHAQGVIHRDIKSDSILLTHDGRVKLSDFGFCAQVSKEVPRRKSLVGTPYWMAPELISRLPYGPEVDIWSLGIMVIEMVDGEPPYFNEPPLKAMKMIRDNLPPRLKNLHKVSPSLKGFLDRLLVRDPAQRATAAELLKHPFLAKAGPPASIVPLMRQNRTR
Chain of G protein-coupled receptor kinase 3 (Homo sapiens) (P35626 whole entry): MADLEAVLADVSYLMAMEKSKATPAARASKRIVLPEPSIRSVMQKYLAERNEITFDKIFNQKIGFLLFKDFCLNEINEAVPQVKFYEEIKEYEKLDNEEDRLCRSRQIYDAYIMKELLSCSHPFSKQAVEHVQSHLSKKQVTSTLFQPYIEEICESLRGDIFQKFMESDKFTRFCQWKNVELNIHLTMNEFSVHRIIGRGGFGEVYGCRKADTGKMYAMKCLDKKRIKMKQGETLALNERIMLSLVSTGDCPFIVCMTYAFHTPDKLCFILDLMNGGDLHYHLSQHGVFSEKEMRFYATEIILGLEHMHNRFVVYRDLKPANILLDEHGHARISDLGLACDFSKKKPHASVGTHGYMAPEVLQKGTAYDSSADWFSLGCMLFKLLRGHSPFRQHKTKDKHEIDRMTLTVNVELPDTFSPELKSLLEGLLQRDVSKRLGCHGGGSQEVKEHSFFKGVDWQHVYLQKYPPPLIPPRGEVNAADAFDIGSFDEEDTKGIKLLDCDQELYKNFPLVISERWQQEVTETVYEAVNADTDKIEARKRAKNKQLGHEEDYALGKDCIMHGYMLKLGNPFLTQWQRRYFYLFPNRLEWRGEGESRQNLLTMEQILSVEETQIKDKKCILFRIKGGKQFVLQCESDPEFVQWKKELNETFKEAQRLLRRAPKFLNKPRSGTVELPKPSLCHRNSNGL

Compound | residual activity [1] | residual activity [2] | residual activity [3] | residual activity [4] | residual activity [5] | residual activity [6] | residual activity [7] | residual activity [8] | residual activity [9] | residual activity [10] | residual activity [11] | residual activity [12] | residual activity [13] | residual activity [14] | residual activity [15] | residual activity [16] | residual activity [17] | residual activity [18] | residual activity [19] | residual activity [20] | also measured
CCS(=O)(=O)c1cc2cc(C[C@](O)(CC(C)(C)c3ccc(F)cc3C(N)=O)C(F)(F)F)[nH]c2cn1 | 85% | 55% | 100% | 100% | 100% | 100% | 99% | 100% | 78% | 100% | 100% | 86% | 93% | 100% | 100% | 94% | 96% | 100% | 97% | 98% | residual activity [21]: 86%; residual activity [22]: 100%; residual activity [23]: 100%; residual activity [24]: 80%; residual activity [25]: 100%; residual activity [26]: 52%; residual activity [27]: 100%; residual activity [28]: 84%; residual activity [29]: 100%; residual activity [30]: 100%; residual activity [31]: 100%; residual activity [32]: 100%; residual activity [33]: 90%; residual activity [34]: 93%; residual activity [35]: 83%; residual activity [36]: 100%; inhibition [37]: 32.2%; inhibition [38]: -4.94%
CCS(=O)(=O)c1cc2cc(C[C@@](O)(CC(C)(C)c3ccc(F)cc3C(N)=O)C(F)(F)F)[nH]c2cn1 | 74% | 100% | 100% | 100% | 77% | 100% | 100% | 66% | 88% | 100% | 94% | 73% | 100% | 73% | 80% | 86% | 89% | 98% | 100% | 100% | residual activity [21]: 94%; residual activity [22]: 88%; residual activity [23]: 100%; residual activity [24]: 69%; residual activity [25]: 85%; residual activity [26]: 61%; residual activity [27]: 96%; residual activity [28]: 69%; residual activity [29]: 100%; residual activity [30]: 100%; residual activity [31]: 84%; residual activity [32]: 100%; residual activity [33]: 94%; residual activity [34]: 83%; residual activity [35]: 92%; residual activity [36]: 46%; inhibition [37]: 21.1%; inhibition [38]: -5.76%
